In patent publication US20240293554A1, “QUATERNIZED NICOTINAMIDE ADENINE DINUCLEOTIDE SALVAGE PATHWAY INHIBITOR CONJUGATES” (priority 2017, published 2024):

Experiments:
L540cy xenograft = assay: L540cy Hodgkin's lymphoma xenograft model; format: in vivo, SCID mice; conditions: cAC10 ADC (8 drugs per antibody) from the named Drug Linker compound; for tumor growth delay: single 1 mg/kg dose ip on day 8, tumors ~100 mm^3; for tolerability (weight loss, outward signs of toxicity): single 1 mg/kg dose ip, SCID mice
Experimental: In vivo xenograft models. All experiments were conducted in concordance with the Animal Care and Use Committee in a facility fully accredited by the Association for Assessment and Accreditation of Laboratory Animal Care. Efficacy experiments were conducted in the L540cy Hodgkin's lymphoma model. Tumor cells, as a cell suspension, were implanted sub-cutaneous in immune-compromised SCID mice. Upon tumor engraftment, mice were randomized to study groups (5 mice per group) when the average tumor volume reached about 100 mm^3. The ADC or controls were dosed once via intraperitoneal injection. Tumor volume as a function of time was determined using the formula (L×W^2)/2. Animals were euthanized when tumor volumes reached 750 mm^3. Mice showing durable regressions were terminated after 10-12 weeks post implant.
[…] chimeric antibody cAC10 were prepared from Drug Linker compounds 5 (MDPr-GlucQ-FK866), 12 (MDPr-GlucQ-6050) and 26 (MDPr-GlucQ-6553) to provide ADCs carrying 8 drugs per antibody. Animals were implanted with tumor cells on day 0. Tumors reached ˜100 mm^3 on day 8, and were then treated with a single 1 mg/kg dose (ip) of ADCs.

HepG2 = assay: CellTiter-Glo cytotoxicity assay, HepG2; format: cell-based; conditions: HepG2 (hepatocellular carcinoma), 96 h
Experimental: (§1) In vitro cytotoxicity assays: Cells cultured in log-phase growth were seeded for 24 h in 96-well plates containing 150 μL RPMI 1640 supplemented with 20% FBS. Serial dilutions of free drugs or antibody-drug conjugates in cell culture media were prepared at 4× working concentrations; 50 μL of each dilution was added to the 96-well plates. Following addition of ADC, cells were incubated with test articles for 4 d at 37° C. After 96 h, growth inhibition was assessed by CellTiter-Glo™ (Promega, Madison, WI) and luminescence was measured on a plate reader. The IC50 value is defined here as the concentration that results in a 50% reduction in cell growth relative to untreated controls.
(§2) Example 89. Binding and cytoxicity of NAMPTi compounds.
(§3) Karpas 299 (non-Hodgkin's lymphoma), L540cy (Hodgkin's lymphoma), Ramos (Burkitt's lymphoma), HepG2 (hepatocellular carcinoma), Hep3B (hepatocellular carcinoma). NAMPTi compounds of Table 1 have the following structures: […]

L540cy = assay: CellTiter-Glo cytotoxicity assay, L540cy; format: cell-based; conditions: L540cy (Hodgkin's lymphoma), 96 h
Experimental: as §1, §2, §3

Ramos = assay: CellTiter-Glo cytotoxicity assay, Ramos; format: cell-based; conditions: Ramos (Burkitt's lymphoma), 96 h
Experimental: as §1, §2, §3

purified NAMPT = purified NAMPT (Homo sapiens, UniProt P43490); conditions: read-out: FP assay (IC50); NAMPT 120 nM, fluorescent probe 30 nM, 4 hours room temp
purified NAMPT, sequence (P43490 whole entry): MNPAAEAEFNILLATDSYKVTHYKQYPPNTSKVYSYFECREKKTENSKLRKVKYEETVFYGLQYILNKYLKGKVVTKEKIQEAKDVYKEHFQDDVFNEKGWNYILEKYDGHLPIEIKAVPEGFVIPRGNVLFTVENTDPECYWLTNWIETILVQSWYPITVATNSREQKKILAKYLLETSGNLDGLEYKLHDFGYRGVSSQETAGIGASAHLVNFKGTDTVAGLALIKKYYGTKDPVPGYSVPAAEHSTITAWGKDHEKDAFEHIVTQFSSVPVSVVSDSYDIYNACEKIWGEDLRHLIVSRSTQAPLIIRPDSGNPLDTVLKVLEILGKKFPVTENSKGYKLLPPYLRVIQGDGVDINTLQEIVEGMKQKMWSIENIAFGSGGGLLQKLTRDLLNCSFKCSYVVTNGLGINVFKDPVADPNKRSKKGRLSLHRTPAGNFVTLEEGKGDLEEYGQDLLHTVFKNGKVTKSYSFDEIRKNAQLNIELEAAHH

Compound | tumor growth delay (L540cy xenograft) | tolerability (weight loss, outward signs of toxicity) (L540cy xenograft) | IC50 (HepG2) | IC50 (L540cy) | IC50 (Ramos) | IC50 (purified NAMPT)
NC[C@@H](C(=O)NCCC(=O)Nc1cc(C[n+]2cccc(/C=C/C(=O)NCCCCC3CCN(C(=O)c4ccccc4)CC3)c2)ccc1O[C@@H]1O[C@H](C(=O)O)[C@@H](O)[C@H](O)[C@H]1O)N1C(=O)C=CC1=O [Compound 5, 1-(3-(3-((S)-3-amino-2-(2,5-dioxo-2,5-dihydro-1H-pyrrol-1-yl)propanamido)propanamido)-4-(((2S, 3R, 4S, 5S, 6S)-6-carboxy-3,4,5-trihydroxy-tetrahydro-2H-pyran-2-yl)oxy)benzyl)-3-((E)-3-((4-(1-benzoylpiperidin-4-yl)butyl)amino)-3-oxoprop-1-en-1-yl)pyridin-1-ium 2,2,2-trifluoroacetate] | varying levels of tumor growth delay | well-tolerated, with no weight loss or outward signs of toxicity observed |  |  |  | 
CC(C)(C)OC(=O)NC[C@@H](C(=O)NCCC(=O)Nc1cc(C[n+]2ccn3cc(C(=O)NCc4ccc(S(=O)(=O)c5cc(F)cc(F)c5)cc4)ccc32)ccc1O[C@@H]1O[C@H](C(=O)O)[C@@H](O)[C@H](O)[C@H]1O)N1C(=O)C=CC1=O [Compound 29, 1-(3-(3-((S)-3-((tert-butoxycarbonyl)amino)-2-(2,5-dioxo-2,5-dihydro-1H-pyrrol-1-yl)propanamido)propanamido)-4-(((2S,3R,4S,5S,6S)-6-carboxy-3,4,5-trihydroxytetrahydro-2H-pyran-2-yl)oxy)benzyl)-6-((4-((3,5-difluorophenyl)-sulfonyl)benzyl)carbamoyl)imidazo[1,2-a]pyridin-1-ium 2,2,2-trifluoroacetate] |  |  | 1.08 nM | 0.78 nM | 0.71 nM | 36 nM
CN(CC1(CO)CCCC1)C(=O)CCCCCCCN/C(=N\C#N)Nc1cc[n+](Cc2ccc(O[C@@H]3O[C@H](C(=O)O)[C@@H](O)[C@H](O)[C@H]3O)c(NC(=O)CCNC(=O)CCN3C(=O)C=CC3=O)c2)cc1 [Compound 26, 1-(4-(((2S,3R,4S,5S,6S)-6-carboxy-3,4,5-trihydroxytetrahydro-2H-pyran-2-yl)oxy)-3-(3-(3-(2,5-dioxo-2,5-dihydro-1H-pyrrol-1-yl)propanamido)-propanamido)benzyl)-4-((E)-2-cyano-3-(8-(((1-(hydroxymethyl)cyclopentyl)methyl)-(methyl)amino)-8-oxooctyl)guanidino)pyridin-1-ium 2,2,2-trifluoroacetate] | varying levels of tumor growth delay | well-tolerated, with no weight loss or outward signs of toxicity observed |  |  |  | 
NCCC(=O)Nc1cc(C[n+]2ccn3cc(C(=O)NCc4ccc(S(=O)(=O)c5cc(F)cc(F)c5)cc4)ccc32)ccc1O[C@@H]1O[C@H](C(=O)O)[C@@H](O)[C@H](O)[C@H]1O [Compound 28, 1-(3-(3-ammoniopropanamido)-4-(((2S,3R,4S,5S,6S)-6-carboxy-3,4,5-trihydroxytetrahydro-2H-pyran-2-yl)oxy)benzyl)-6-((4-((3,5-difluorophenyl)-sulfonyl)benzyl)carbamoyl)imidazo[1,2-a]pyridin-1-ium 2,2,2-trifluoroacetate] |  |  | 8 nM | 8.5 nM | 1 nM | 47 nM
NC[C@@H](C(=O)NCCC(=O)Nc1cc(C[n+]2cccc(/C=C/C(=O)NCCCCC3CCN(C(=O)c4cccc(N)c4)CC3)c2)ccc1O[C@@H]1O[C@H](C(=O)O)[C@@H](O)[C@H](O)[C@H]1O)N1C(=O)C=CC1=O [Compound 12, 1-(3-(3-((S)-3-ammonio-2-(2,5-dioxo-2,5-dihydro-1H-pyrrol-1-yl)propanamido)propanamido)-4-(((2S,3R,4S,5S,6S)-6-carboxy-3,4,5-trihydroxytetrahydro-2H-pyran-2-yl)oxy)benzyl)-3-((E)-3-((4-(1-(3-ammoniobenzoyl)piperidin-4-yl)butyl)amino)-3-oxoprop-1-en-1-yl)pyridin-1-ium 2,2,2-trifluoroacetate] | varying levels of tumor growth delay | well-tolerated, with no weight loss or outward signs of toxicity observed |  |  |  | 
